# Test results reported in patent US9867831B2, “Combination treatment of acute myeloid leukemia and myelodysplastic syndrome” (Boehringer Ingelheim International GmbH, priority 2014, dated 2018).
# Test system: human AML cell line MV4;11
# Test: Nude mouse xenograft model derived from human AML cell line MV4;11 (tumor growth)
# Assay type: in vivo
# Conditions: MV4;11 s.c. xenograft in nude mice; Volasertib 20 mg/kg once a week i.v., Quizartinib 5 or 10 mg/kg daily p.o.; treated 14 days, observation without treatment up to day 87
# Description: Median tumor volumes are plotted over time. Day 1 was the first day, day 87 the last day of the experiment.
# MV4;11 (CRL-9591) cells were obtained from ATCC. […] Cells were cultured in T175 tissue culture flasks at 37° C. and 5% CO2. The medium used was IMDM supplemented with 10% fetal calf serum, 1% NEAA, 1% sodium pyruvate and 1% glutamine.
# Mice were 8 week-old athymic female BomTac: NMRI-Foxn1^nu purchased from Taconic, Denmark. After arrival in the animal facility, mice were allowed to adjust to ambient conditions for at least 3 days before they were used for experiments. They were housed in Macrolon® type II cages in groups of 5 under standardized conditions at 21.5±1.5° C. temperature and 55±10% humidity. Standardized diet (PROVIMI KLIBA) and autoclaved tap water were provided ad libitum.
# To establish subcutaneous tumors, MV4;11 cells were harvested and resuspended in PBS+5% FCS at 5×10^7 cells/ml. 50 μl of the cell suspension containing 2.5×10^6 cells was then injected subcutaneously into the right flank of the mice (1 site per mouse). […]
# The tumor diameter was measured three times a week with a caliper. The volume of each tumor [in mm^3] was calculated according to the formula “tumor volume=length*diameter^2*π/6”. To monitor side effects of treatment, mice were inspected daily for abnormalities and body weight was determined three times a week. […]
smiles,measurement,value
CC(C)(C)c1cc(NC(=O)Nc2ccc(-c3cn4c(n3)sc3cc(OCCN5CCOCC5)ccc34)cc2)no1 [Quizartinib],tumor growth kinetics (median tumor volumes over time),outgrowth of the tumor
